Common to all, as to format: biochemical
In one assay the target is PI3K-alpha (Homo sapiens, UniProt P42336). Kind of assay: PI3K-alpha fluorescence polarization assay.
The target in the next assay is PI3K-delta (Homo sapiens, UniProt O00329). Briefly: PI3K-delta fluorescence polarization assay. The settings on record: read-out: PI3Kδ Avg. IC50.
The next assay has as its target T1, human TOR (Homo sapiens, UniProt P42345).
T1 construct: FLAG
Kind of assay: mTOR enzyme assay (DELFIA, His6-S6K substrate).

The target of the next assay is PI3K-gamma (Homo sapiens, UniProt P48736). Briefly: PI3K-gamma fluorescence polarization assay. The settings on record: PI3Kγ Avg. IC50. The gist of the method: (§1)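 Each isoform (5 ng) phosphorylated 2.5 μM diC8-PI(4,5)P2 at 25 μM ATP for one hour at 25° C in the presence of inhibitor. Reactions were then stopped with EDTA, and product was detected by fluorescence polarization using a GST-GRP1 PH domain and a BODIPY-TMR-labelled IP4 tracer.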

The target of the next assay is PI3K-beta (Homo sapiens, UniProt P42338). Briefly: PI3K-beta fluorescence polarization assay. The settings on record: read-out: PI3Kβ Avg. IC50. The method, boiled down:
as §1

Where [1] appears, read: read-out: mTOR Kinase Avg. IC50.

Each structure is given as a SMILES string. pIC50: −log10 of the molar value. Like-named read-outs stand apart in the source and are kept apart here. Where only a bound is given, the exact number is not on record here.

PI3K-delta, sequence (O00329 whole entry, species assumed): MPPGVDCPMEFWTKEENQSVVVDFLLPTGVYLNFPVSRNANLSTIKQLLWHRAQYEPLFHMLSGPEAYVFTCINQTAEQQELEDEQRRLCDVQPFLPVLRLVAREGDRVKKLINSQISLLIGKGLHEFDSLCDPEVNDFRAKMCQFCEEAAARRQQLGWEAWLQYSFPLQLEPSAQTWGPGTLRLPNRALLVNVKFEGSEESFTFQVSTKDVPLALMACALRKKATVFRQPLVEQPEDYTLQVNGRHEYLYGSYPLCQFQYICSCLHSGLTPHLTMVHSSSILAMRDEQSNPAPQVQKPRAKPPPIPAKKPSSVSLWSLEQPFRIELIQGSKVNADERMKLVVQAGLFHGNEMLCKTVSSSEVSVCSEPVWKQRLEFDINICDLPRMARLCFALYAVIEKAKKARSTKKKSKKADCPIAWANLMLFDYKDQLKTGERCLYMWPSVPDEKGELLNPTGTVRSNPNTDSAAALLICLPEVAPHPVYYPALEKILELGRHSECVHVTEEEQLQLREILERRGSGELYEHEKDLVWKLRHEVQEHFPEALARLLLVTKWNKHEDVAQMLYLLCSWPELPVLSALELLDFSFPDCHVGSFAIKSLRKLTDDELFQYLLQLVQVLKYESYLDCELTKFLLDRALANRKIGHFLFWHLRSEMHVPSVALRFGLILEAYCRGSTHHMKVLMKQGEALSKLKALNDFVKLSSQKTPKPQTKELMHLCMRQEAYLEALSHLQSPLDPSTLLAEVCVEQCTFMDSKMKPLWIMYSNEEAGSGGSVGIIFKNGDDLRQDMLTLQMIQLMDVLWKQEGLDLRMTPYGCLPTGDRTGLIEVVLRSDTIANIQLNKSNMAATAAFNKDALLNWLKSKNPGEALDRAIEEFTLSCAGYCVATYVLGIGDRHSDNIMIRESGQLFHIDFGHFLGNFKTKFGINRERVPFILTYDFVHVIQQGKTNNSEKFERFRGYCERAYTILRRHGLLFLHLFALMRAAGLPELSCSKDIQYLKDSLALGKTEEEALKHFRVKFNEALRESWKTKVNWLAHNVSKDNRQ
PI3K-delta, sequence (P27986 whole entry partner, species assumed): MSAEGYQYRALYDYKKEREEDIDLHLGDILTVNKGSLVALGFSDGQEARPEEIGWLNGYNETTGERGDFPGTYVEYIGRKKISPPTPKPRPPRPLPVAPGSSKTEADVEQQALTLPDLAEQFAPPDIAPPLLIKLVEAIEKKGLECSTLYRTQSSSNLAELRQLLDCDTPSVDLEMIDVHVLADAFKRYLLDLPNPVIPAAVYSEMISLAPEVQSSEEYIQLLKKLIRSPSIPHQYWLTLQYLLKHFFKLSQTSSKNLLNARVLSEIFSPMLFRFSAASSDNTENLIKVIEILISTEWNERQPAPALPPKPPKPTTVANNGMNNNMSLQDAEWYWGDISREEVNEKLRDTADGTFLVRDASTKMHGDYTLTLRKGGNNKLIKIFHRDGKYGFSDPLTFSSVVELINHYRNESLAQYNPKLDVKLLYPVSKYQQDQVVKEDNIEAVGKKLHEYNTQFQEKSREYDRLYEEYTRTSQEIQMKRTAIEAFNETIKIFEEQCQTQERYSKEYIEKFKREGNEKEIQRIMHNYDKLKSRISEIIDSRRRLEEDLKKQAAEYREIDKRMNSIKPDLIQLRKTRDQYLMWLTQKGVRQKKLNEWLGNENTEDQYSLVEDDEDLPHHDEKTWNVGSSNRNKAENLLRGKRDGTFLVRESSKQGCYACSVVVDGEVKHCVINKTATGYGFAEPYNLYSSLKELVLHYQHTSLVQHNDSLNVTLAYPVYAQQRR
PI3K-beta, sequence (P42338 whole entry, species assumed): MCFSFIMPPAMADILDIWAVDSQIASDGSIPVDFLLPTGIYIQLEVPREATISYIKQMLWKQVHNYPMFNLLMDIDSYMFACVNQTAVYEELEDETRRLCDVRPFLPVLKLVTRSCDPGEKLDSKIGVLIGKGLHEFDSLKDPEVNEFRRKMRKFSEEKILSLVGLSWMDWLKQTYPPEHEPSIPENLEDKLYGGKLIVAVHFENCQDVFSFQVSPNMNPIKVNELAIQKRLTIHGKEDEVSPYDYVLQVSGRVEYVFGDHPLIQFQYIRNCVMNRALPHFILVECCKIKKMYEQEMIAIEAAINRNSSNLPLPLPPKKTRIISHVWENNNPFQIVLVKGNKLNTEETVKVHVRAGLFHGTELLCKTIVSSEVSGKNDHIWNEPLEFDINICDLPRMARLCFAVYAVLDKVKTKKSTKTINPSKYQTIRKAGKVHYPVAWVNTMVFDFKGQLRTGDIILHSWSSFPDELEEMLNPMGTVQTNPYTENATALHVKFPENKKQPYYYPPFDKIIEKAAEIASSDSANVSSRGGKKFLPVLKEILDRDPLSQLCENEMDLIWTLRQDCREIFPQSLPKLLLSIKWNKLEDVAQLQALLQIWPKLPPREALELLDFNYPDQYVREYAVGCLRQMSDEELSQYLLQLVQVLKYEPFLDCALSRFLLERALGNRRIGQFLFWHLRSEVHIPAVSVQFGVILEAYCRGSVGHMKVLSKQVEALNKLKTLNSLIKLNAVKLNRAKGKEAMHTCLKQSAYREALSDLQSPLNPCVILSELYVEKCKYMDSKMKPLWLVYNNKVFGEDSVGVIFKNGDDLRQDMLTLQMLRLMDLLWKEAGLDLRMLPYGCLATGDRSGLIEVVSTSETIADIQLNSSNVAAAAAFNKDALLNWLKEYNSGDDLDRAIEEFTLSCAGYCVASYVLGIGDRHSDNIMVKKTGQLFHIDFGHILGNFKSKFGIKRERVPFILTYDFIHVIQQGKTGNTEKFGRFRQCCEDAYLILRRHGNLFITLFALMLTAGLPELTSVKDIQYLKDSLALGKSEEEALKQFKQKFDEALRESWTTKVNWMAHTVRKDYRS
PI3K-beta, sequence (P27986 whole entry partner, species assumed): as the sequence (P27986 whole entry partner, species assumed) above
PI3K-alpha, sequence (P42336 whole entry, species assumed): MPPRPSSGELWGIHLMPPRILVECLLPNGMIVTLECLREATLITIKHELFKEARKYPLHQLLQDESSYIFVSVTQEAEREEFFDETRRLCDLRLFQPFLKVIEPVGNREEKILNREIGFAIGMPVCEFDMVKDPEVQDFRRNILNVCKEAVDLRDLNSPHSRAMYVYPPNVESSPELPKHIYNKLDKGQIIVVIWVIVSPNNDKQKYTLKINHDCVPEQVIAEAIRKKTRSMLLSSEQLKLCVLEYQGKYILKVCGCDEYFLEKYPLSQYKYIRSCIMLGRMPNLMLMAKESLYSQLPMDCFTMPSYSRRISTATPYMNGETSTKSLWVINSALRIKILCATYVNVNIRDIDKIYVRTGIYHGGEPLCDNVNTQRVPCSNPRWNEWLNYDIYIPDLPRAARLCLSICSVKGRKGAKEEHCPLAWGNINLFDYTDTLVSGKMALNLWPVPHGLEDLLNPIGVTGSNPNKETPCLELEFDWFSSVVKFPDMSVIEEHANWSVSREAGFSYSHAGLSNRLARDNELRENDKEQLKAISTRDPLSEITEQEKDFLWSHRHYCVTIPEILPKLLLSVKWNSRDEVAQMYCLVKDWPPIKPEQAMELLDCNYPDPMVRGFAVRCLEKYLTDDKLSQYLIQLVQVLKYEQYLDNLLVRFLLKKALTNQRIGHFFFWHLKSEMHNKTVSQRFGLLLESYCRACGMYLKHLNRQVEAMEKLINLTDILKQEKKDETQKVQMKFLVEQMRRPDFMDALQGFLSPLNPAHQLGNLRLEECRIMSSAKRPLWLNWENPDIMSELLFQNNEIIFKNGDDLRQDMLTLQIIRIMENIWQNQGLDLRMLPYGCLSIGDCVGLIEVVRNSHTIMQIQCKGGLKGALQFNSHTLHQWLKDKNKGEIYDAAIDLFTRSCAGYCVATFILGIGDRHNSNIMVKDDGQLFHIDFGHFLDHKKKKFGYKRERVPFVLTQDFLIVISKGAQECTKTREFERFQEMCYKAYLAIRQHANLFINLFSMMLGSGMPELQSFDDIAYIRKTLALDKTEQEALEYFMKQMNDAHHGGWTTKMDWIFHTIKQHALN
PI3K-alpha, sequence (P27986 whole entry partner, species assumed): as the sequence (P27986 whole entry partner, species assumed) above
PI3K-gamma, sequence (P48736 whole entry, species assumed, the tested form may be a part, canonical isoform): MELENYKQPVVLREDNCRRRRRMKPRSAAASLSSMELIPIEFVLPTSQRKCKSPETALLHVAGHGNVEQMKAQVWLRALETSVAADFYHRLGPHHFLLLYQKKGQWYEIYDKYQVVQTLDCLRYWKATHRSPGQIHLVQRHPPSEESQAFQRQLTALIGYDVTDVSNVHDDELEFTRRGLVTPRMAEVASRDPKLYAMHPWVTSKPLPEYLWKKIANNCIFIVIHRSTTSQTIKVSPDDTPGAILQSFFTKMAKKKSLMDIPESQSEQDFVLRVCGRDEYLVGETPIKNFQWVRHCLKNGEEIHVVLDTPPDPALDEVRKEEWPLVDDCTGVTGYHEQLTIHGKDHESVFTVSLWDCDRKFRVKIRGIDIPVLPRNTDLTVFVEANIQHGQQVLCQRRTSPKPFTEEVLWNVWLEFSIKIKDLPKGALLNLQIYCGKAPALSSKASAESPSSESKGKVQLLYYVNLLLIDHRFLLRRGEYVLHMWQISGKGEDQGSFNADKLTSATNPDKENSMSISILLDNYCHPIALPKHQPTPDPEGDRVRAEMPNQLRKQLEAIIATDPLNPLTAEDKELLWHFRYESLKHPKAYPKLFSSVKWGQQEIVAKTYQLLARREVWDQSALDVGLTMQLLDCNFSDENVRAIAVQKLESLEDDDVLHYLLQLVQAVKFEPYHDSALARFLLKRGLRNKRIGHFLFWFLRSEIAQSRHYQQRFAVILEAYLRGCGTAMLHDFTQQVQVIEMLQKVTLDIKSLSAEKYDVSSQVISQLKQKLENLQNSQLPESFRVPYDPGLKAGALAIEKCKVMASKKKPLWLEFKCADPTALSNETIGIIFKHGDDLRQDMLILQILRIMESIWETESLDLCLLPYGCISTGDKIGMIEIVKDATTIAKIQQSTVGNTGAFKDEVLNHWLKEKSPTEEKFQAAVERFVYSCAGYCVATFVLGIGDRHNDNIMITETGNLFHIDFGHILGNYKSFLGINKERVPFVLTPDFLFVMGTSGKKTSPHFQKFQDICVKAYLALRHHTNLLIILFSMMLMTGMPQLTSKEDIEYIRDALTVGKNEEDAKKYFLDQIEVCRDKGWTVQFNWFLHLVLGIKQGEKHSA

With `O=C1C(=Cc2c(-c3ccccc3)[nH]c3ccccc23)Oc2cc(O)cc(O)c21` [Example 14, 4,6-dihydroxy-2-[(2-phenyl-1H-indol-3-yl)methylene]-1-benzofuran-3(2H)-one], the negative logarithm of the IC50 (pIC50) is 5.99 against PI3K-alpha (PI3Kα Avg. IC50); 6.42 on PI3K-delta; 6.89 at human TOR (setting [1]); 5.56 on PI3K-gamma; 6.13 on PI3K-beta.
`COc1ccc2c(c1)c(/C=C1\Oc3cc(O)cc(O)c3C1=O)cn2CCN1CCN(C)CC1` [Example 308, (2Z)-4,6-Dihydroxy-2-({5-methoxy-1-[2-(4-methylpiperazin-1-yl)ethyl]-1H-indol-3-yl}methylene)-1-benzofuran-3(2H)-one]: the negative logarithm of the IC50 (pIC50) on PI3K-alpha (read-out: PI3Kα Avg. IC50) is 7.59; at PI3K-delta it was 8.26; on human TOR (setting [1]), 6.57; against PI3K-gamma, 5.99; on PI3K-beta it was 7.63.
The corresponding values for `COc1ccc2c(c1)c(/C=C1\Oc3cc(O)cc(O)c3C1=O)cn2CC(=O)N(C)C` [Example 318, 2-{3-[(Z)-(4,6-Dihydroxy-3-oxo-1-benzofuran-2(3H)-ylidene)methyl]-5-methoxy-1H-indol-1-yl}-N,N-dimethylacetamide] are 7.08, 7.57, 6.60, 6.16 and 6.13.
As for `COc1ccc2c(c1)c(/C=C1\Oc3cc(O)cc(O)c3C1=O)cn2CCN1CCC(O)C1` (stereo not shown) [Example 326, (2Z)-4,6-Dihydroxy-2-({1-[2-(3-hydroxypyrrolidin-1-yl)ethyl]-5-methoxy-1H-indol-3-yl}methylene)-1-benzofuran-3(2H)-one], the pIC50 is 7.24 at PI3K-alpha (read-out: PI3Kα Avg. IC50); 8.02 on PI3K-delta; 6.27 at human TOR (setting [1]); 6.82 against PI3K-gamma; 7.06 on PI3K-beta.
Regarding `COc1ccc2c(c1)c(/C=C1\Oc3cc(O)cc(O)c3C1=O)c(C(F)(F)F)n2CC(=O)N(C)C` [Example 333, 2-{3-[(Z)-(4,6-Dihydroxy-3-oxo-1-benzofuran-2(3H)-ylidene)methyl]-5-methoxy-2-(trifluoromethyl)-1H-indol-1-yl}-N,N-dimethylacetamide], the pIC50 at PI3K-alpha (read-out: PI3Kα Avg. IC50) is 7.18; on PI3K-delta, 7.29; at human TOR (setting [1]) it was 7.28; against PI3K-gamma, 6.80; on PI3K-beta it was 6.69.
For `COc1ccc2[nH]c(-c3c(C)noc3C)c(/C=C3\Oc4cc(O)cc(O)c4C3=O)c2c1` [Example 360, (2Z)-2-{[2-(3,5-Dimethylisoxazol-4-yl)-5-methoxy-1H-indol-3-yl]methylene}-4,6-dihydroxy-1-benzofuran-3(2H)-one], the pIC50 on PI3K-alpha (read-out: PI3Kα Avg. IC50) was 8.82; on PI3K-delta, 9.52; at human TOR (setting [1]) it was 8.90; on PI3K-gamma it was 8.49; on PI3K-beta, 8.89.
The corresponding values for `COc1ccc2[nH]c(CN(C)C)c(/C=C3\Oc4cc(O)cc(O)c4C3=O)c2c1` [Example 353, (2Z)-2-({2-[(Dimethylamino)methyl]-5-methoxy-1H-indol-3-yl}methylene)-4,6-dihydroxy-1-benzofuran-3(2H)-one] are 8.40, 8.70, 7.66, 7.42 and 8.10.
For `COc1cc2c(C=C3Oc4cc(O)cc(O)c4C3=O)c(C)[nH]c2cc1C` [Example 184, 4,6-dihydroxy-2-[(5-methoxy-2,6-dimethyl-1H-indol-3-yl)methylene]-1-benzofuran-3(2H)-one] the same measures were 6.99, 6.71, 6.72, 6.26 and 6.81.
With `COc1ccc2[nH]c(C(=O)O)c(/C=C3\Oc4cc(O)cc(O)c4C3=O)c2c1` [Example 339, 3-[(Z)-(4,6-Dihydroxy-3-oxo-1-benzofuran-2(3H)-ylidene)methyl]-5-methoxy-1H-indole-2-carboxylic acid], the pIC50 at PI3K-alpha (read-out: PI3Kα Avg. IC50) is 8.26; on PI3K-delta, 7.69; on human TOR (setting [1]), 7.40; against PI3K-gamma, 8.07; at PI3K-beta, 7.03.
Take `COc1ccc2[nH]c(-c3ccccc3)c(/C=C3\Oc4cccc(O)c4C3=O)c2c1` [Example 304, (2Z)-4-Hydroxy-2-[(5-methoxy-2-phenyl-1H-indol-3-yl)methylene]-1-benzofuran-3(2H)-one]: the pIC50 is 7.27 on PI3K-alpha (read-out: PI3Kα Avg. IC50); 7.77 at PI3K-delta; 7.21 at human TOR (setting [1]); 7.19 at PI3K-gamma; 6.89 at PI3K-beta.
As to `COc1ccc2c(c1)c(/C=C1\Oc3cc(O)cc(O)c3C1=O)c(-c1cnn(C)c1)n2CC(=O)N(C)C` [Example 329, 2-{3-[(Z)-(4,6-Dihydroxy-3-oxo-1-benzofuran-2(3H)-ylidene)methyl]-5-methoxy-2-(1-methyl-1H-pyrazol-4-yl)-1H-indol-1-yl}-N,N-dimethylacetamide], the pIC50 on PI3K-alpha (read-out: PI3Kα Avg. IC50) was 7.90; at PI3K-delta, 7.73; on human TOR (setting [1]), 7.41; against PI3K-gamma it was 6.89; at PI3K-beta, 7.29.
The corresponding values for `COc1ccc2c(c1)c(/C=C1\Oc3cc(O)ccc3C1=O)c(C(=O)N(C)C)n2CCN1CCN(C)CC1` [Example 335, 3-[(Z)-(6-Hydroxy-3-oxo-1-benzofuran-2(3H)-ylidene)methyl]-5-methoxy-N,N-dimethyl-1-[2-(4-methylpiperazin-1-yl)ethyl]-1H-indole-2-carboxamide] are 8.05, 8.70, 5.78, 6.23 and 7.66.
The corresponding values for `COc1ccc2c(c1)c(/C=C1\Oc3cc(O)cc(O)c3C1=O)cn2CCO` [Example 317, (2Z)-4,6-Dihydroxy-2-{[1-(2-hydroxyethyl)-5-methoxy-1H-indol-3-yl]methylene}-1-benzofuran-3(2H)-one] are 7.77, 8.07, 7.11, 7.03 and 7.19.
The corresponding values for `COc1ccc2[nH]c(C)c(C=C3Oc4cc(O)cc(O)c4C3=O)c2c1` [Example 73, 4,6-dihydroxy-2-[(5-methoxy-2-methyl-1H-indol-3-yl)methylene]-1-benzofuran-3(2H)-one] are 8.57, 8.24, 8.57, 7.60 and 8.10.
Turning to `COc1ccc2c(c1)c(/C=C1\Oc3cc(O)ccc3C1=O)c(C)n2CCCN1CCCC1` [Example 356, (2Z)-6-Hydroxy-2-{[5-methoxy-2-methyl-1-(3-pyrrolidin-1-ylpropyl)-1H-indol-3-yl]methylene}-1-benzofuran-3(2H)-one], the pIC50 on PI3K-alpha (read-out: PI3Kα Avg. IC50) is 7.81; on PI3K-delta, 8.92; at human TOR (setting [1]), under 6.10; on PI3K-gamma, 6.39; at PI3K-beta it was 6.94.
For `COc1ccc2c(c1)c(/C=C1\Oc3cc(O)cc(C)c3C1=O)c(C)n2CCN1CCN(C)CC1` [Example 338, (2Z)-6-Hydroxy-2-({5-methoxy-2-methyl-1-[2-(4-methylpiperazin-1-yl)ethyl]-1H-indol-3-yl}methylene)-4-methyl-1-benzofuran-3(2H)-one] the same measures were 7.66, 8.52, under 6.80, 6.18 and 7.24.
With `COc1ccc2c(c1)c(C=C1Oc3cc(O)cc(O)c3C1=O)c(C)n2CCCN1CCN(CCO)CC1` [Example 103, 4,6-dihydroxy-2-[(1-{3-[4-(2-hydroxyethyl)piperazin-1-yl]propyl}-5-methoxy-2-methyl-1H-indol-3-yl)methylene]-1-benzofuran-3(2H)-one], the pIC50 is 8.18 on PI3K-alpha (read-out: PI3Kα Avg. IC50); 8.70 at PI3K-delta; 6.97 on human TOR (setting [1]); 6.96 on PI3K-gamma; 7.66 at PI3K-beta.
Turning to `COc1ccc2c(c1)c(C=C1Oc3cc(O)cc(O)c3C1=O)cn2CCCN1CCOCC1` [Example 112, 4,6-dihydroxy-2-{[5-methoxy-1-(3-morpholin-4-ylpropyl)-1H-indol-3-yl]methylene}-1-benzofuran-3(2H)-one], the pIC50 is 7.38 against PI3K-alpha (PI3Kα Avg. IC50); 8.22 at PI3K-delta; 6.37 against human TOR (mTOR Kinase Avg. IC50); 6.19 on PI3K-gamma; 6.74 on PI3K-beta.
As to `COc1ccc2c(c1)c(/C=C1\Oc3cc(O)cc(O)c3C1=O)c(C(=O)N(C)C)n2CCO` [Example 348, 3-[(Z)-(4,6-Dihydroxy-3-oxo-1-benzofuran-2(3H)-ylidene)methyl]-1-(2-hydroxyethyl)-5-methoxy-N,N-dimethyl-1H-indole-2-carboxamide], the pIC50 on PI3K-alpha (read-out: PI3Kα Avg. IC50) is 7.94; on PI3K-delta, 7.90; on human TOR (setting [1]), 7.76; against PI3K-gamma, 7.22; on PI3K-beta, 7.12.
On to `COc1ccc2c(c1)c(C=C1Oc3cc(O)cc(O)c3C1=O)c(C)n2CCCCl` [Example 88, 2-{[1-(3-chloropropyl)-5-methoxy-2-methyl-1H-indol-3-yl]methylene}-4,6-dihydroxy-1-benzofuran-3(2H)-one], for which the pIC50 on PI3K-alpha (read-out: PI3Kα Avg. IC50) was 8.01; at PI3K-delta, 8.46; at human TOR (setting [1]), over 7.68; against PI3K-gamma it was 7.13; at PI3K-beta it was 7.28.

Source of the values: patent US20090311217A1, “3-SUBSTITUTED-1H-INDOLE COMPOUNDS, THEIR USE AS MTOR KINASE AND PI3 KINASE INHIBITORS, AND THEIR SYNTHESES” (priority 2008, published 2009).
